Test results taken from US20060035212A1, “Molecules inhibiting hepatitis c virus protein synthesis and method for screening same” (Universte Joseph Fourier, priority 2002, published 2006).
Entries after “also recorded” stand apart in the source; their conditions may differ. Read-outs that look alike come from different tables or passages of the source.

Assays:
[1] = target: T1, p116 RRM/consensus sequence of region II of the HCV IRES complex (Homo sapiens, UniProt P55884); assay: In vitro screening assay: inhibition of binding of the RRM of p116 to the consensus sequence of region II of the IRES (nitrocellulose retention); parameters: species or system HCV (IRES RNA); eIF3 p116 RRM cDNA from HeLa cells; conditions: for inhibition of the formation of the RNA-protein complex (in words): 4 different concentrations tested
T1 construct: His6 (C); made in house; host or cells: E. coli BL21lysS
Protocol: (§1) Radiolabeled RNA fragments are obtained by in vitro transcription of the abovementioned templates in the presence of [α-32P]UTP. The RNA fragments are purified in a 6% acrylamide-urea gel and precipitated. The RNA pellets are taken up in 25 mM Tris-HCl, pH 7.4. In order to allow renaturation, the RNA was incubated at 65° C. in the abovementioned buffer for 5-7 min and then slowly cooled to ambient temperature. The renatured RNAs were incubated with increasing concentrations of protein in the same 25 mM Tris-HCl buffer, pH 7.4, at ambient temperature for 5 min.
The mixture of proteins and of RNA is then deposited onto a nitrocellulose membrane washed beforehand with the same buffer. The radioactivity of the filter containing the RNA-protein complexes was measured using a Trilux MicroBeta radioactivity counter (PerkinElmer). […]
The screening assay is carried out as follows. The RRM of p116 and the consensus sequence of region II are incubated in the presence of various aminoglycosides. The RNA mixture is then deposited onto a nitrocellulose membrane under the same conditions as in example 2.

[2] = system: HCV IRES-controlled Firefly luciferase synthesis in HeLa cells; assay: Bicistronic construct in HeLa cells: IRES-dependent (cap-independent) translation, Firefly luciferase; format: cell-based; conditions: for IRES specificity of translation inhibition (in words): IRES-dependent versus cap-dependent translation, HeLa cells; for inhibition at 2000 µM: 2 mM
Protocol: (§2) Bicistronic constructs consisting of a first cistron corresponding to the Renilla luciferase gene, followed by the IRES sequence, followed by a second cistron corresponding to the Firefly luciferase gene (pRluc-IRES-Fluc) are prepared in the following way. A plasmid pRL-SV40 (Promega) is linearized with Xba I and dephosphorylated. In parallel, the IRES is amplified with the Firefly luciferase gene by PCR, in the presence of complementary oligonucleotides containing the Xba I sites. The PCR products are then subcloned in plasmid pTrcHis2-TOPO (Invitrogen) in order to control the digestion. The ligation of the insert containing the IRES with the Firefly luciferase gene and the linearized vector pRL-SV40 is carried out using T4 DNA ligase (Biolabs).
(§3) 10^7 HeLa cells suspended in serum-free DMEM are transfected with 1 to 2.5 μg of plasmid pRluc-IRES-Fluc by electroporation at […] for 30 milliseconds using a Gene Pulser (BioRad). […] The Renilla luciferase activity (cap-dependent translation) and that of the Firefly luciferase (cap-independent=viral translation) in the cell lysates is measured and compared by means of the Dual-luciferase assay (Promega) and of a Lumat LB9507 luminometer (Berthold).

[3] = system: cap-controlled Renilla luciferase synthesis in HeLa cells; assay: Bicistronic construct in HeLa cells: cap-dependent translation, Renilla luciferase; format: cell-based; conditions: for cap-dependent synthesis, % of control: 2.5 μg of pDNA (FIG. 9C)
Protocol: as §2, §3

entire IRES of HCV = assay: Affinity of the RRM of p116 for the whole IRES by retention on nitrocellulose; format: binding; conditions: 25 mM Tris-HCl pH 7.4, read-out: apparent Kd
Protocol: as §1
The mixture of proteins and of RNA is then deposited onto a nitrocellulose membrane washed beforehand with the same buffer. The radioactivity of the filter containing the RNA-protein complexes was measured using a Trilux MicroBeta radioactivity counter (PerkinElmer).

[4] = concentrations of 1, 2 and 5 mM

[H]/N=C(/N)N[C@H]1[C@H](O)[C@@H](O)[C@H](O[C@@H]2O[C@@H](C)[C@](O)(C=O)[C@H]2O[C@@H]2O[C@@H](CO)[C@H](O)[C@@H](O)[C@@H]2NC)[C@@H](N/C(N)=N\[H])[C@@H]1O [streptomycin]
inhibition at 20 µM ([1]; 20 μM): 25% | inhibition at 40 µM ([1]; 40 μM): 36% | inhibition of the formation of the RNA-protein complex (in words) [1]: inhibit the formation of the RNA-protein complex at all the concentrations tested | IRES specificity of translation inhibition (in words) [2]: inhibits the translation of the two cistrons in an IRES-nonspecific manner

CN[C@@H]1[C@@H](O)[C@@H](O[C@@H]2[C@@H](O)[C@H](O[C@H]3O[C@H]([C@@H](C)O)[C@@H](O)[C@H](O)[C@H]3N)[C@@H](N)C[C@H]2N)OC[C@]1(C)O [G418]
IRES specificity of translation inhibition (in words) [2]: inhibit both the cap-dependent and IRES-dependent translation in an IRES-nonspecific manner

NC[C@H]1O[C@H](O[C@H]2[C@H](O)[C@@H](O[C@H]3O[C@H](CO)[C@@H](O)[C@H](N)[C@H]3O)[C@H](N)C[C@@H]2N)[C@H](N)[C@@H](O)[C@@H]1O [kanamycin B]
inhibition of the p116 RRM/II complex ([1]; 20 μM): 22%

NC[C@H]1O[C@H](O[C@H]2[C@H](O)[C@@H](O[C@H]3O[C@H](CO)[C@@H](O)[C@H](N)[C@H]3O)[C@H](N)C[C@@H]2N)[C@H](O)[C@@H](O)[C@@H]1O [kanamycin A]
inhibition of the p116 RRM/II complex ([1]; 20 μM): 0% | inhibition of the p116 RRM/II complex ([1]; 40 μM): 0% | inhibition of the p116 RRM/II complex ([1]; 80 μM): 0%

NC[C@@H]1O[C@H](O[C@H]2[C@@H](O)[C@H](O[C@@H]3[C@@H](O)[C@H](N)C[C@H](N)[C@H]3O[C@H]3O[C@H](CO)[C@@H](O)[C@H](O)[C@H]3N)O[C@@H]2CO)[C@H](N)[C@@H](O)[C@@H]1O [paramomycin]
inhibition of cap-dependent translation [3, 4]: 6.3% | IRES specificity of translation inhibition (in words) [2]: moderately IRES-specific | inhibition of IRES-dependent translation [2, 4]: 37%

NC[C@H]1O[C@H](O[C@H]2[C@H](O)[C@@H](O[C@H]3O[C@H](CO)[C@@H](O)[C@H](N)[C@H]3O)[C@H](N)C[C@@H]2N)[C@H](N)C[C@@H]1O [tobramycin]
inhibition at 20 µM ([1]; 20 μM): 43% | inhibition at 40 µM ([1]; 40 μM): 54% | inhibition of the formation of the RNA-protein complex (in words) [1]: inhibit the formation of the RNA-protein complex at all the concentrations tested; also recorded: capable of dissociating the p116/II complex in vitro, at all the concentrations tested | synthesis of the Renilla luciferase (cap-controlled), % of the control ([3]; 1 mM, 1 μg of plasmid DNA (FIG. 9B)): 168 % of the control | cap-dependent synthesis, % of control ([3]; 2 mM): 268 % of control | cap-dependent synthesis, % of control ([3]; 5 mM): 134 % of control | inhibition at 2000 µM ([3]; Renilla, HeLa, 2 mM, 1 μg of plasmid DNA (FIG. 9B)): 27% | inhibition at 1000 µM ([2]; Hepatitis C virus, HeLa, read-out: inhibition of the synthesis of the Firefly luciferase controlled by the IRES): 90.4% | inhibition at 2000 µM ([2]; Hepatitis C virus, HeLa, 1 μg of plasmid DNA (FIG. 9B), read-out: inhibition of IRES-luciferase synthesis): 83% | inhibition at 2000 µM ([2]; Hepatitis C virus, HeLa, 2.5 μg of pDNA (FIG. 9C), read-out: inhibition of the IRES-dependent translation): 36.5% | inhibition at 5000 µM ([2]; Hepatitis C virus, HeLa, 5 mM, 2.5 μg of pDNA (FIG. 9C)): 69% | IRES specificity of translation inhibition (in words) [2]: the most specific inhibitor of the IRES-controlled translation

B1: RRMp116: recombinant RNA recognition motif of the eIF3 p116 subunit (SEQ ID 5), C-terminal His6-Tag (protein)
chain: MDRPQEADGIDSVIVVDNVPQVGPDRLEKLKNVIHKIFSKFGKITNDFYPEEDGKTKGYIFLEYASPAHAVDAVKNADGYKLDKQHTFRVNLFTDFDKYMTISDEW
modifications: C-terminal His6 tag; p116 175..279 corresponds to a portion (RRM) of eIF3 p116 subunit
Kd (entire IRES of HCV): 800 nM
